# According to ChEMBL document CHEMBL1201862, “PubChem BioAssay data set” (2004):
# Where “and” joins values, the source holds several entries; their conditions need not be identical. Equal entries are not always repeated. Calls of active or inactive are those of the source.
# Key:
# cells = assay type: functional
# Cytochrome P450 2D6 = Cytochrome P450 2D6 (Homo sapiens, UniProt P10635);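 further: CYP2D6 member of a cytochrome P450 panel assay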
# Cytochrome P450 2C19 = Cytochrome P450 2C19 (Homo sapiens, UniProt P33261); experiment: Cytochrome panel assay with activity outcomes. Panel member name: p450-cyp2c19 Compounds with AC50 equal or less than 10 uM are considered active; assay type: functional
# Cytochrome P450 1A2 = biological target: T1, Cytochrome P450 1A2 (Homo sapiens, UniProt P05177);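 further: PubChem cytochrome P450 panel assay, CYP1A2 panel member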
# T1 sequence (P05177 whole entry): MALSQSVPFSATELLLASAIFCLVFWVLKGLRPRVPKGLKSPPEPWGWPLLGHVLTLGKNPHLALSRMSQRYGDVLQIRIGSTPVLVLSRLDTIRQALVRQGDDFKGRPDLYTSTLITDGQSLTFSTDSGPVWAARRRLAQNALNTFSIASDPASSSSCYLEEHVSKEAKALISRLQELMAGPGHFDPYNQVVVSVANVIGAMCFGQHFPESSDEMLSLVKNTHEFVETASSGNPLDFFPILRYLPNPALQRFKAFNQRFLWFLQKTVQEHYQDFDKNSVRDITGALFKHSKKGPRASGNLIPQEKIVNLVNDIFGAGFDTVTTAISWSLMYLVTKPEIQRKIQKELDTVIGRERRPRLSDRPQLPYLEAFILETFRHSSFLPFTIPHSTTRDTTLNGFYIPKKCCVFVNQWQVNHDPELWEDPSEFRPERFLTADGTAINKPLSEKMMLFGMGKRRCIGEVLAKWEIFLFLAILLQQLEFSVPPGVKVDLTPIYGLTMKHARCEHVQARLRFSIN
# [1] = alpha-synuclein stem-loop luciferase translation blockers – H4 neuroglioma cells, luminescence, confirmation (AID 1988); assay type: functional, cell-based
# [2] = Luminescence Cell-Based Dose Response HTS to Identify Inhibitors of 5'UTR Stem-Loop Driven Prion Protein mRNA Translation in H4 Neuroglioblastoma Cells. [Related pubchem assays: 1827 (Project Summary), 1813 (Primary HTS)]; assay type: functional
# Cytochrome P450 3A4 = Cytochrome P450 3A4 (Homo sapiens, UniProt P08684);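 further: CYP3A4 tested as one member of a cytochrome P450 panel screen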
# [3] = viability of uninfected HEp-2 cells – cell-based, HTS, cytotoxicity control for RSV inhibitor project, dose response (AID 2410); assay type: functional; conditions: human respiratory syncytial virus
# [4] = Trypanosoma cruzi growth suppression in host cells – NIH3T3 host cells, beta-gal luminescence, confirmation (AID 2044); assay type: functional, cell-based;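 further: intracellular parasites grown in NIH/3T3 mouse fibroblasts as host cells; luminescent beta-galactosidase reporter signal from transgenic T. cruzi replicating inside host cells; inhibitors lower the luminescence signal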
# [5] = NIH3T3 cell viability loss – ATP luminescence, mouse fibroblasts, counter-screen, dose response (AID 2010); assay type: functional, cell-based; conditions: NIH3T3;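 further: cells exposed to compound for about 90 hours before reading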
# [6] = luciferase reporter signal suppression in cells – H4 neuroglioma cells, luminescence, dose response (AID 1990); assay type: functional, cell-based
# [7] = Luminescence Cell-Based Dose Response HTS to Identify Activators of Luciferase Translation or Activity in H4 […] Cells. [Related pubchem assays: 1829 (Project Summary), 1814 (Primary HTS)]; assay type: functional
# H4 = experiment: Luminescence Cell-Based Dose Response HTS to Identify Activators of 5'UTR Stem-Loop Driven Prion Protein mRNA Translation in H4 Neuroglioblastoma Cells. [Related pubchem assays: 1829 (Project Summary), 1814 (Primary HTS)]; assay type: functional; conditions: Homo sapiens
# [8] = tested on: Streptococcus sp. 'group A'; experiment: Streptococcus pyogenes SK(-)GAS viability under kanamycin – luminescence, BacTiterGlo, confirmation, counter-screen for streptokinase expression inhibitor project, dose response (AID 1900); assay type: functional, organism-based; conditions: Streptococcus sp. 'group A'
# Streptococcus = experiment: GAS UMAA2166 growth inhibition – luminescence, BacTiterGlo, counter-screen for streptokinase expression inhibitor project, dose response (AID 1915); assay type: functional, organism-based; conditions: Streptococcus;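 further: potency for reduction of bacterial viability or growth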
# Streptokinase A = biological target: T2, Streptokinase A (Streptococcus pyogenes serotype M1, UniProt P10520); experiment: viability-normalized secreted streptokinase activity reduction – plasminogen activation absorbance, OD405, dose response (AID 1914); assay type: functional, Streptococcus pyogenes M1 GAS;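 further: secreted streptokinase activity via plasminogen activation per viability signal from cell pellet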
# T2 sequence (P10520 whole entry): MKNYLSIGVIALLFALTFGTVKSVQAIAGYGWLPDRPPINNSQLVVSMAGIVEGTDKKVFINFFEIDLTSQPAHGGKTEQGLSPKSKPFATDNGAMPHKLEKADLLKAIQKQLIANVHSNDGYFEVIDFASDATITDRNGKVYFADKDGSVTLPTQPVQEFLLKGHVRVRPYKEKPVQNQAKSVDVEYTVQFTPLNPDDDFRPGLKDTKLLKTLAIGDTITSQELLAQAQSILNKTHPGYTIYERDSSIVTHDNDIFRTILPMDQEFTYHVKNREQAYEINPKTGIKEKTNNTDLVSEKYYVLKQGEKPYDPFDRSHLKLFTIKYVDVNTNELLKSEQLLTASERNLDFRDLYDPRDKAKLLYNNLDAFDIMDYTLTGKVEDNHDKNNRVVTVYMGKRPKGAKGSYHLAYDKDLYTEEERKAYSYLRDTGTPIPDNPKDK
# Sequence of Cytochrome P450 3A4 (P08684 whole entry): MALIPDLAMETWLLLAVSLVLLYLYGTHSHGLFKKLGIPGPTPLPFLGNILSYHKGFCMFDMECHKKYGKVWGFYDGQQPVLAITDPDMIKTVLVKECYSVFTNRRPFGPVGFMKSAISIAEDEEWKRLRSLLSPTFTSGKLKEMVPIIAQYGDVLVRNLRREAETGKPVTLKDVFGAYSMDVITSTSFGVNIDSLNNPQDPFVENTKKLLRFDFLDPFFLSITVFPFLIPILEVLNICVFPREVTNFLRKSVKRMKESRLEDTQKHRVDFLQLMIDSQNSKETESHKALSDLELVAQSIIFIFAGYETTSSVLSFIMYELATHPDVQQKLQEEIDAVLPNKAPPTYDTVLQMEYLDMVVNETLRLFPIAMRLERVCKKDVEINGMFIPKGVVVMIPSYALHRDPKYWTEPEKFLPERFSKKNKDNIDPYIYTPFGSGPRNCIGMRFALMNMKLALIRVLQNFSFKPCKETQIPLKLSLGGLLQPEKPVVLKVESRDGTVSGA
# Sequence of Cytochrome P450 2D6 (P10635 whole entry): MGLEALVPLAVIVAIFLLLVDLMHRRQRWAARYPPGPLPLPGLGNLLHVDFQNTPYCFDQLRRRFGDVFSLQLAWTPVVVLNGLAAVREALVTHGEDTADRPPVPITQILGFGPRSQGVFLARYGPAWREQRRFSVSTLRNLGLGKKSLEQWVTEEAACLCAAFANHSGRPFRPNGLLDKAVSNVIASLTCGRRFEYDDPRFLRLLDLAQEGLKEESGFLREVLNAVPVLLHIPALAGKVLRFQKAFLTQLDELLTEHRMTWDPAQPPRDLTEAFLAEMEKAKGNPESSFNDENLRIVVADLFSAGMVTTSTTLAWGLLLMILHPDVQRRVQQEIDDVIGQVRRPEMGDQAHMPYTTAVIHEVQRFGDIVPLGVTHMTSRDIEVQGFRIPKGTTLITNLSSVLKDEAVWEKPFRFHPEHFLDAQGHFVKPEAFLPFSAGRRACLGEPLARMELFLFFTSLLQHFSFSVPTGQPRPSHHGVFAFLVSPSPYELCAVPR
# Sequence of Cytochrome P450 2C19 (P33261 whole entry): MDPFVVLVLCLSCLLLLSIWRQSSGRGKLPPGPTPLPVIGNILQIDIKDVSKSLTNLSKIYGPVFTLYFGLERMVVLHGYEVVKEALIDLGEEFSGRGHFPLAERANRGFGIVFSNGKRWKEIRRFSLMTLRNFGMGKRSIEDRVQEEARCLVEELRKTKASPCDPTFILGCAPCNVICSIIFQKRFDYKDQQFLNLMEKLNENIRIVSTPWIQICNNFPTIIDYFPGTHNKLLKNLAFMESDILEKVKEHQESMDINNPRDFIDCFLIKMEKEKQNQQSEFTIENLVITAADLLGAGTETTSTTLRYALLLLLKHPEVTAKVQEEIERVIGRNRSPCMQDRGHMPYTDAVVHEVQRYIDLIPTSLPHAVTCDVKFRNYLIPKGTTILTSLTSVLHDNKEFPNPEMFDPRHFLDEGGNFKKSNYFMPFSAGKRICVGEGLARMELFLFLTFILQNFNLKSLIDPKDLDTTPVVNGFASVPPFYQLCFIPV
smiles,measurement,setting,value
CCCOc1ccc(N2CC(C(=O)Nc3ccccc3F)CC2=O)cc1 (configuration not stated),IC50,cells,32.1 µM (active)
Cc1c(/C=N/CCOCc2ccccc2)cnn1C,AC50,Cytochrome P450 2D6,25.1 µM (inconclusive)
same,AC50,Cytochrome P450 2C19; read-out: AC50,22.4 µM (inconclusive)
COc1cccc(C(=O)OCC(=O)c2ccc(Br)s2)c1OC,IC50,cells,29.7 µM (active)
COc1ccc(-n2c(=O)c(-c3cccc(Cl)c3)nc3cncnc32)cc1,AC50,Cytochrome P450 2C19; read-out: AC50,39.8 µM (inconclusive)
Cc1cc(C)nc(SCC(=O)Nc2ccccc2[N+](=O)[O-])n1,AC50,Cytochrome P450 1A2,17.8 µM (inconclusive)
CC(=O)c1ccc(N=Nc2ccc(N(C)C)cc2)cc1,EC50,[1],4.11 µM (inconclusive)
same,EC50,[2],4.44 µM (active)
COc1cc(-c2nnc(SCC(=O)Nc3ccc4c(c3)OCCO4)o2)cc(OC)c1OC,AC50,Cytochrome P450 1A2,15.8 µM (inconclusive)
N#Cc1cc(-c2ccccc2)cnc1Sc1ccc(Cl)cc1,AC50,Cytochrome P450 2D6,10 µM (inconclusive)
same,AC50,Cytochrome P450 3A4,12.6 µM (inconclusive)
CCN(c1ccccc1)S(=O)(=O)c1ccc(OC)c(NC(=O)CNCCc2ccccc2)c1,CC50,[3],14.4 µM (active)
same,EC50,[4],1.72 µM (active)
same,EC50,[5],> 60 µM (not active)
Cc1ccccc1-c1nc(NC2CC2)c2ccccc2n1,AC50,Cytochrome P450 2D6,39.8 µM (inconclusive)
Cc1cc(C)c(NC(=O)CCN2CCN(Cc3ccccc3)CC2)c(C)c1,EC50,[1],> 120 µM (not active)
same,EC50,[6],> 120 µM (not active)
same,EC50,[2],> 120 µM (not active)
CCc1cc2c(=O)c(-c3cnn(-c4ccccc4)c3)coc2c(CN2CCOCC2)c1O,AC50,Cytochrome P450 1A2,15.8 µM (inconclusive)
O=C(N/N=C/c1ccccc1O)NC12CC3CC(CC(C3)C1)C2,EC50,[7],28.5 µM (active)
same,EC50,H4,> 120 µM (not active)
same,EC50,[8],22.3 µM (active)
same,EC50,Streptococcus,15.1 µM (active)
same,EC50,Streptokinase A,> 150 µM (not active)
CC1CCN(C(=O)c2ccc(-c3ccccc3Cl)o2)CC1,IC50,cells,33.8 µM (active)
CN(C)c1ncc2ncc(=O)n(C)c2n1,AC50,Cytochrome P450 2D6,20 µM (inconclusive)
COc1cccc(NC(=S)N(CCc2nc3cc(C)c(C)cc3[nH]2)Cc2cccnc2)c1,AC50,Cytochrome P450 2D6,0.126 µM (inconclusive)
CNC(=O)C(=O)NCCc1ccc(Cl)cc1,AC50,Cytochrome P450 2D6,28.2 µM (inconclusive)
Cc1cc(C)c2cc(CN(CCO)C(=O)Nc3ccc(F)cc3)c(O)nc2c1,EC50,[1],> 120 µM (not active)
same,EC50,[6],18.3 µM (active)
same,EC50,[2],> 120 µM (not active)
Cc1cc(C)c(S(C)(=O)=O)c(Oc2ccc(C(C)(C)C)cc2)n1,AC50,Cytochrome P450 3A4,14.1 µM (inconclusive)
same,EC50,[1],80.7 µM (active)
same,EC50,[6],15.7 µM (active)
same,EC50,[2],1.08 µM (active)
CC1CCCC(NC(=O)c2nnc(O)c3ccccc23)C1C (configuration not stated),AC50,Cytochrome P450 2C19; read-out: AC50,20 µM (inconclusive)
COc1ccc(C(C(=O)NC2CCCCC2)N(C(=O)Cc2c[nH]c3ccccc23)c2ccccc2)cc1OC (configuration not stated),CC50,[3],27.2 µM (active)
C[C@H](CC(C#N)(c1ccccc1)c1ccccc1)N1CCCCC1,AC50,Cytochrome P450 3A4,3.98 µM (inconclusive)
same,AC50,Cytochrome P450 2C19; read-out: AC50,1.58 µM (inconclusive)
O=c1c(-c2ccc(Cl)cc2)nc2cnc(N3CCOCC3)nc2n1C1CC1,AC50,Cytochrome P450 1A2,1.26 µM (inconclusive)
COc1ccccc1N1CCN(C(=O)C(NS(=O)(=O)c2cccs2)c2ccccc2)CC1 (configuration not stated),AC50,Cytochrome P450 2D6,15.8 µM (inconclusive)
same,AC50,Cytochrome P450 1A2,2.51 µM (inconclusive)
COc1ccc(/N=C/c2ccc(CNS(=O)(=O)c3ccc(Cl)cc3)o2)cc1,AC50,Cytochrome P450 1A2,25.1 µM (inconclusive)
same,AC50,Cytochrome P450 3A4,31.6 µM (inconclusive)
same,AC50,Cytochrome P450 2C19; read-out: AC50,11.2 µM (inconclusive)
Cn1c(=O)c(-c2ccccc2)nc2cnc(Nc3ccccc3)nc21,AC50,Cytochrome P450 2C19; read-out: AC50,0.0398 µM (inconclusive)
CCOc1ccc2c(ccc(/C=C/c3cc(C)c4cccnc4c3O)[n+]2C)c1,AC50,Cytochrome P450 2D6,3.16 µM (inconclusive)
same,AC50,Cytochrome P450 1A2,6.31 µM (inconclusive)
CN1CCN(c2ncc3ncc(=O)n(Cc4ccc(F)cc4)c3n2)CC1,AC50,Cytochrome P450 1A2,25.1 µM (inconclusive)
same,AC50,Cytochrome P450 3A4,15.8 µM (inconclusive)
CC(C)(C(=O)c1cccnc1)c1cccnc1 [METYRAPONE],AC50,Cytochrome P450 1A2,12.6 µM (inconclusive)
CCS(=O)(=O)Nc1ccc(C2=NN(C(=O)c3ccco3)C(c3cccc(F)c3)C2)cc1 (configuration not stated),CC50,[3],32.9 µM (active)
CNc1ncncc1-c1ccc(C(=O)N(C)C)cc1,AC50,Cytochrome P450 1A2,15.8 µM (inconclusive)
COc1ccccc1CCn1c(=O)c(CCc2ccccc2)nc2cncnc21,AC50,Cytochrome P450 2D6,25.1 µM (inconclusive)
COc1ccc2oc(=O)c(/C(C)=N/NC(=O)c3ccncc3)cc2c1,IC50,cells,1.31 µM (active)
Cc1cc(O)c(NC(=O)c2cc([N+](=O)[O-])ccc2Cl)cc1C,CC50,[3],23.3 µM (active)
CC(C)(C)NC(=O)c1ccc(NC(=O)c2ccccc2-c2ccccc2C(=O)O)cc1,IC50,cells,6.42 µM (active)
CCCOc1ccccc1C1CC(=O)NC(C)=C1C(=O)OCC(C)C (configuration not stated),AC50,Cytochrome P450 1A2,11.2 µM (inconclusive)
COc1ccc(/C=C/C(=O)Nc2cccc(S(=O)(=O)NC3=NCCCCC3)c2)cc1,CC50,[3],27.9 µM (active)
COc1ccc(S(=O)(=O)N2CC3C4C=CC(C4)C3C2)cc1 (configuration not stated),AC50,Cytochrome P450 2D6,15.8 µM (inconclusive)
Nc1ncccc1OCc1cccc(C(F)(F)F)c1,EC50,[1],> 120 µM (not active)
same,EC50,[6],> 120 µM (not active)
same,EC50,[2],> 120 µM (not active)
CC(C)OC(=O)COc1ccc(-c2ccccc2)cc1,IC50,cells,6.13 µM (active)
CN(C)C(=O)c1ccc(-c2nccc(-n3ccnc3)n2)cc1,AC50,Cytochrome P450 2D6,39.8 µM (inconclusive)
same,AC50,Cytochrome P450 3A4,3.16 µM (inconclusive)
same,AC50,Cytochrome P450 2C19; read-out: AC50,39.8 µM (inconclusive)
O=C(Cc1ccc(Br)cc1)Nc1ccccc1Sc1ccccc1,AC50,Cytochrome P450 2D6,11.2 µM (inconclusive)
CCNCCCNCCCNCCCNCC [BIS(ETHYL)NORSPERMINE],AC50,Cytochrome P450 2C19,inconclusive
CCN(CCCNC(=O)CNC(=O)c1nn(-c2ccc(OC)cc2)c(=O)c2ccccc12)c1cccc(C)c1,CC50,[3],46 µM (active)
Cn1cccc1CNCCc1ccccc1,AC50,Cytochrome P450 3A4,31.6 µM (inconclusive)
same,AC50,Cytochrome P450 2C19; read-out: AC50,14.1 µM (inconclusive)
CCOC(=O)c1nnc2cc(-c3ccc(Br)cc3)nn2c1C,EC50,[7],27.6 µM (active)
same,EC50,H4,88.8 µM (active)
C1=NCCc2c1[nH]c1ccccc21.[O-][Cl+3]([O-])([O-])O,CC50,[3],10.3 µM (active)
Nc1nc(Br)c2c(F)cccc2c1-c1ccc(F)cc1,AC50,Cytochrome P450 2C19; read-out: AC50,1.12 µM (inconclusive)
N[C@@](C(=O)O)(c1ccc(P(=O)(O)O)cc1)C1CC1,AC50,Cytochrome P450 1A2,50.1 µM (inconclusive)
same,AC50,Cytochrome P450 2C19; read-out: AC50,25.1 µM (inconclusive)
CN(C)c1ncnc2ccc(-c3ccoc3)cc12,AC50,Cytochrome P450 3A4,12.6 µM (inconclusive)
same,AC50,Cytochrome P450 2C19; read-out: AC50,39.8 µM (inconclusive)
CCOc1cc2c(cc1OCC)-n1cccc1C(c1cc(OC)ccc1F)NC2 (configuration not stated),CC50,[3],39.8 µM (active)
CCN(CC)CCOC(=O)c1ccc(N)cc1 [PROCAINE],AC50,Cytochrome P450 2D6,10 µM (inconclusive) and 39.8 µM (inconclusive)
COc1cc2nc3c(c([Si](C)(C)C(C)(C)C)c2cc1OC)Cn1c-3cccc1=O,AC50,Cytochrome P450 2C19; read-out: AC50,39.8 µM (inconclusive)
CCCCOc1ccc(-c2cn3ccccc3n2)cc1[N+](=O)[O-],CC50,[3],38.7 µM (active)
CCCCC(=O)Nc1ccc(C(=O)OC2CCCCC2)cc1,CC50,[3],22.8 µM (active)
Cc1cccc(Cn2ccc(NC(=O)c3ccc4c(c3)OCO4)n2)c1,IC50,cells,2.33 µM (active)
CC(=O)Nc1cccc(-c2csc(Nc3ccc(Cl)cn3)n2)c1,CC50,[3],9.11 µM (active)
